{"source": "ChEMBL document CHEMBL6182899", "about": "“Shooting an Arrow against Convulsion: Novel Triazole-Grafted Benzenesulfonamide Derivatives as Carbonic Anhydrase II and VII Inhibitors” (J Med Chem, 2025)", "organism": "Mus musculus", "experiment": "animal or person", "settings": "24 h"}
{"smiles": "CCCC(CCC)C(=O)O", "note": "[VALPROIC ACID]", "values": [{"measurement": "survival at 100 mg/kg", "value": 80, "unit": "%"}]}
